Measured values published in ChEMBL document CHEMBL1201862, “PubChem BioAssay data set” (2004).
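Where inhibition never reached the appropriate level, the endpoint shown equals the highest concentration tested. Otherwise, values were interpolated linearly from a five-concentration, 48-hour dose response in 96-well plates. Here, GI50 denotes the concentration required for 50% inhibition of growth.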 The source made the active and inactive calls. No stated cut-off is given here; in the data, active = GI50 up to about 1.1 µM and inactive = higher.

Key:
Test in all cases: NCI-60 cell line screen, 48 h
[1] = test system: IGROV-1
[2] = test system: OVCAR-4
[3] = test system: SNB-19
[4] = test system: UO-31
[5] = test system: UACC-257
[6] = test system: OVCAR-3
[7] = test system: SW-620
[8] = test system: COLO 205
[9] = test system: SK-OV-3
[10] = test system: HT-29
[11] = test system: A549
[12] = test system: SF-295
[13] = test system: NCI-H460
[14] = test system: RXF 393
[15] = test system: A498
[16] = test system: HL-60

Measured: GI50

Clc1ccc(-c2nnc3c4nnc(-c5ccc(Cl)cc5Cl)n4c4ccccc4n23)c(Cl)c1
inactive: [1] > 100 µM | [2] > 100 µM | [3] 63.5 µM | [4] > 100 µM | [5] > 100 µM | [6] > 100 µM | [7] > 100 µM | [8] > 100 µM | [9] > 100 µM | [10] > 100 µM | [11] > 100 µM | [12] > 100 µM | [13] > 100 µM | [14] > 100 µM | [15] > 100 µM

COC(=O)/C(=N\NC(N)=O)C(C#N)c1ccccc1 (stereo unspecified)
inactive: [2] > 100 µM | [3] > 100 µM | [16] > 100 µM | [4] > 100 µM | [5] > 100 µM | [6] > 100 µM | [7] > 100 µM | [8] > 100 µM | [9] > 100 µM | [10] > 100 µM | [11] > 100 µM | [12] > 100 µM | [13] > 100 µM | [14] > 100 µM | [15] > 100 µM

Cc1c2ccccc2cc2ccc3oc([N+](=O)[O-])cc3c12
inactive: [1] > 100 µM | [2] > 100 µM | [3] > 100 µM | [16] 3.93 µM | [4] > 100 µM | [5] > 100 µM | [6] > 100 µM | [7] > 100 µM | [8] > 100 µM | [9] > 100 µM | [10] > 100 µM | [11] > 100 µM | [12] > 100 µM | [13] 6.19 µM | [14] > 100 µM | [15] 5.6 µM

CC(C)=CCC/C(C)=C/Cc1c(O)c(C)cc2c1[nH]c1cc(O)ccc12
inactive: [1] > 25 µM | [2] > 25 µM | [3] > 25 µM | [16] > 25 µM | [4] > 25 µM | [6] > 25 µM | [7] > 25 µM | [8] > 25 µM | [9] > 25 µM | [10] > 25 µM | [11] > 25 µM | [13] > 25 µM | [14] > 25 µM

COc1ccc(/C=C2\N=C(c3ccccc3)OC2=O)c(OCc2ccccc2)c1
inactive: [1] 18.8 µM | [2] 22.1 µM | [3] 28.4 µM | [16] 40.4 µM | [4] > 100 µM | [5] > 10 µM | [6] 19 µM | [7] > 100 µM | [8] 84.9 µM | [11] 41.5 µM | [12] 17.9 µM | [13] 53 µM | [15] 16.3 µM

O=C(Cc1nc2ccccc2o1)C(=O)Nc1cccc(Cl)c1
inactive: [1] > 100 µM | [2] > 100 µM | [3] > 100 µM | [16] > 100 µM | [4] > 100 µM | [5] > 100 µM | [6] > 100 µM | [7] > 100 µM | [8] > 100 µM | [9] > 100 µM | [10] > 100 µM | [11] > 100 µM | [12] > 100 µM | [13] > 100 µM | [14] > 100 µM | [15] > 100 µM

CN(C)CCCn1cnc2ncccc2c1=O
inactive: [1] > 100 µM | [2] > 100 µM | [3] > 100 µM | [4] > 100 µM | [6] > 100 µM | [7] > 100 µM | [8] 55.1 µM | [9] > 100 µM | [10] > 100 µM | [11] > 100 µM | [12] > 100 µM | [13] > 100 µM | [14] > 100 µM

Cc1nc(=O)n2c(C)n[nH]c2c1C(=O)O
inactive: [1] > 100 µM | [2] > 100 µM | [16] > 100 µM | [4] > 100 µM | [6] > 100 µM | [7] > 100 µM | [8] > 100 µM | [9] > 100 µM | [10] > 100 µM | [12] > 100 µM | [13] > 100 µM | [14] 31.1 µM

CC1=C(C(=O)Nc2cc(F)c(F)cc2F)C(c2ccc([N+](=O)[O-])cc2)C(C(=O)Nc2cc(F)c(F)cc2F)=C(C)N1
inactive: [1] 28.2 µM | [2] 18.5 µM | [3] 48.6 µM | [16] 11.2 µM | [4] 13.1 µM | [5] 28.7 µM | [6] 19.1 µM | [7] 48.2 µM | [8] 71.4 µM | [9] 54.5 µM | [10] 34.1 µM | [11] 37.8 µM | [12] 56.1 µM | [13] 43.9 µM | [14] 10.6 µM | [15] 18.2 µM

Cc1ccc(C(=O)CC2(O)C(=O)Nc3c(C)cc(Cl)cc32)cc1 (stereo unspecified)
inactive: [2] 35.7 µM | [3] > 100 µM | [16] 59.8 µM | [4] > 100 µM | [5] > 100 µM | [6] > 100 µM | [7] > 100 µM | [8] > 100 µM | [9] > 100 µM | [10] > 100 µM | [11] > 100 µM | [12] > 100 µM | [13] > 100 µM | [14] > 100 µM

c1ccc(CSc2nc3ccccc3nc2-c2cccs2)cc1
inactive: [1] > 100 µM | [2] > 100 µM | [3] > 100 µM | [16] > 100 µM | [4] > 100 µM | [5] > 100 µM | [6] > 100 µM | [8] > 100 µM | [9] > 100 µM | [10] > 100 µM | [11] > 100 µM | [12] > 100 µM | [13] > 100 µM

Cc1ccccc1NC(=O)c1cc(-c2ccc([N+](=O)[O-])cc2)nc(S)n1
inactive: [1] > 100 µM | [2] > 100 µM | [3] > 100 µM | [16] > 100 µM | [4] > 100 µM | [5] > 100 µM | [6] > 100 µM | [7] > 100 µM | [8] > 100 µM | [9] > 100 µM | [10] > 100 µM | [11] > 100 µM | [12] > 100 µM | [13] > 100 µM | [14] > 100 µM

O=C(/C=C/c1ccc(O)c(O)c1)OC1C[C@@](O)(C(=O)O)C[C@@H](O)[C@H]1OC(=O)/C=C/c1ccc(O)c(O)c1 (stereo partly specified)
inactive: [1] > 100 µM | [2] > 100 µM | [16] > 100 µM | [4] > 100 µM | [5] > 100 µM | [6] > 100 µM | [7] > 100 µM | [8] > 100 µM | [9] > 100 µM | [10] > 100 µM | [11] > 100 µM | [12] > 100 µM | [13] > 100 µM | [14] > 100 µM | [15] > 100 µM
